target: MERS-CoV 3CLpro (Middle East respiratory syndrome-related coronavirus, UniProt K9N638); assay: biochemical; conditions: MERS IC50, 75 nM MERS-CoV 3CLpro, 6 μM peptide 1 substrate, 25° C., 1.5 hrs, pH 7.5
Sequence (K9N638 3248-3553 limits assumed): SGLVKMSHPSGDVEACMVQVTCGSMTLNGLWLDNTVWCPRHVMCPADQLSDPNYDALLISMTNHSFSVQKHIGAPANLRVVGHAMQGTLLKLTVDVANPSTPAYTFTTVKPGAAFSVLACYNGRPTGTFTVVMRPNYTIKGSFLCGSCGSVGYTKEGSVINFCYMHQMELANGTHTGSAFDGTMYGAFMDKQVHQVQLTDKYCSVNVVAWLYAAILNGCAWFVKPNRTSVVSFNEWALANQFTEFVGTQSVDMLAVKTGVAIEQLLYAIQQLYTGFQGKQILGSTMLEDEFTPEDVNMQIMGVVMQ

Row | Compound | IC50
1 | CC1(C)[C@@H]2[C@H]3C(=O)N[C@H](C#N)C[C@@H]4C(=O)NC[C@@H]4CCCC[C@H](NC(=O)C4CCOCC4)C(=O)N3C[C@@H]21 [Example 85] | < 100 nM
2 | CC(C)(C)OC(=O)N[C@H]1CCCC[C@H]2CNC(=O)[C@H]2C[C@@H](C#N)NC(=O)[C@@H]2[C@H]3CCC[C@H]3CN2C1=O [Example 79] | 100 to 1000 nM
3 | CC1(C)[C@@H]2[C@H]3C(=O)N[C@H](C#N)C[C@@H]4C(=O)NCC[C@@H]4CCCC[C@H](NC(=O)C45CC(C(F)(F)F)(C4)C5)C(=O)N3C[C@@H]21 [Example 135] | < 100 nM
4 | CC(C)(C)NC(=O)[C@@H]1CCCC[C@H]2CNC(=O)[C@H]2C[C@@H](C#N)NC(=O)[C@@H]2[C@@H]3[C@H](CN2C1=O)C3(C)C [Example 166] | > 20000 nM
5 | CC(C)(C)C(=O)N[C@H]1CCCC[C@H]2CNC(=O)[C@H]2C[C@@H](C#N)NC(=O)[C@H](C2CCCC2)NC1=O [Example 80] | 100 to 1000 nM
6 | N#C[C@@H]1C[C@@H]2C(=O)NC[C@@H]2CCCC[C@H](NS(=O)(=O)c2ccc(F)cc2F)C(=O)N2C[C@@H]3CCC[C@@H]3[C@H]2C(=O)N1 [Example 155] | 100 to 1000 nM
7 | CC1(C)[C@@H]2[C@H]3C(=O)N[C@H](C#N)C[C@@H]4C(=O)NC[C@@H]4CCCC[C@H](NC(=O)c4ccc(F)cc4C(F)(F)F)C(=O)N3C[C@@H]21 [Example 139] | < 100 nM
8 | CC(C)C[C@@H]1NC(=O)[C@@H](OC(C)(C)C)CCC[C@H]2CNC(=O)[C@@H]2C[C@@H](C#N)NC1=O [Example 29] | > 20000 nM
9 | N#C[C@@H]1C[C@@H]2C(=O)NCC[C@@H]2CCCC[C@H](NC(=O)OC2CCCC2)C(=O)N2C[C@@H]3CCC[C@@H]3[C@H]2C(=O)N1 [Example 93] | 100 to 1000 nM
10 | CC(C)(C)C(=O)N[C@H]1CC/C=C/[C@H]2CNC(=O)[C@H]2C[C@@H](C#N)NC(=O)[C@@H]2[C@H]3CCC[C@H]3CN2C1=O [Example 86] | 100 to 1000 nM
11 | CC(C)(C)C(=O)N[C@H]1CC/C=C/[C@H]2CNC(=O)[C@H]2C[C@@H](C#N)NC(=O)[C@@H]2[C@@H]3[C@H](CN2C1=O)C3(C)C [Example 61] | < 100 nM
12 | CC(C)(C)OC(=O)N[C@@H]1CCCC[C@H]2CNC(=O)[C@H]2C[C@@H](C#N)NC(=O)[C@@H]2[C@@H]3[C@H](CN2C1=O)C3(C)C [Example 128] | > 20000 nM
13 | N#C[C@@H]1C[C@@H]2C(=O)NC[C@@H]2CCCC[C@H](NC(=O)C(F)(F)F)C(=O)N2C[C@@H]3CCC[C@@H]3[C@H]2C(=O)N1 [Example 88] | 100 to 1000 nM
14 | CC(C)C[C@@H]1NC(=O)CCCC[C@H]2CNC(=O)[C@@H]2C[C@@H](C=O)NC1=O [Example 4] | 100 to 1000 nM
15 | CC(C)C[C@@H]1NC(=O)[C@H](Cc2ccccc2)CCC[C@@H]2CNC(=O)[C@@H]2C[C@@H](C=O)NC1=O [Example 11] | 1000 to 20000 nM
16 | CC(C)(C)OC(=O)N[C@H]1CC/C=C\[C@H]2CCNC(=O)[C@H]2CC(C#N)NC(=O)[C@@H]2[C@H]3CCC[C@H]3CN2C1=O (some centres unmarked) [Example 97] | 100 to 1000 nM
17 | CC(C)(C)OC(=O)NN1CCCC[C@H]2CNC(=O)[C@H]2C[C@@H](C#N)NC(=O)[C@@H]2[C@@H]3[C@H](CN2C1=O)C3(C)C [Example 168] | 1000 to 20000 nM
18 | CC(C)C[C@@H]1NC(=O)[C@H](Cc2ccccc2)CCC[C@H]2CNC(=O)[C@@H]2C[C@@H](C=O)NC1=O [Example 21] | 100 to 1000 nM
19 | CC(C)(C)OC(=O)N[C@@]1(C)CCCCC[C@H]2CNC(=O)[C@H]2C[C@@H](C#N)NC(=O)[C@@H]2[C@@H]3[C@H](CN2C1=O)C3(C)C [Example 126] | > 20000 nM
20 | CC(C)(C)NC(=O)[C@H]1CCCC[C@H]2CNC(=O)[C@H]2C[C@@H](C#N)NC(=O)[C@@H]2[C@@H]3[C@H](CN2C1=O)C3(C)C [Example 167] | 1000 to 20000 nM
21 | CC(C)(C)C(=O)N[C@H]1CCC[C@H]2CCNC(=O)[C@@H]2C[C@@H](C#N)NC(=O)[C@@H]2[C@@H]3[C@H](CN2C1=O)C3(C)C [Example 66] | 100 to 1000 nM
22 | CC1(C)[C@@H]2[C@H]3C(=O)N[C@H](C#N)C[C@@H]4C(=O)NC[C@@H]4CCCC[C@H](NC(=O)c4ccc(F)cc4F)C(=O)N3C[C@@H]21 [Example 103] | < 100 nM
23 | CC(C)C[C@@H]1NC(=O)[C@@H](Cc2ccccc2)CCC[C@@H]2CNC(=O)[C@@H]2C[C@@H](C=O)NC1=O [Example 9] | 1000 to 20000 nM
24 | CC1(C)[C@@H]2[C@H]3C(=O)N[C@H](C#N)C[C@@H]4C(=O)NC[C@@H]4CCCC[C@H](NC(=O)C4CC(F)(F)C4)C(=O)N3C[C@@H]21 [Example 62] | < 100 nM
25 | CC1(C)[C@@H]2[C@H]3C(=O)N[C@H](C#N)C[C@@H]4C(=O)NC[C@@H]4CCCC[C@H](NS(=O)(=O)C4(C)CC4)C(=O)N3C[C@@H]21 [Example 159] | < 100 nM

target: SARS-CoV-2 3CLpro (Severe acute respiratory syndrome coronavirus 2, UniProt P0DTD1); assay: FRET based protease assay, SARS-CoV-2 3CL; assay type: biochemical, SARS-CoV-2 (strain BetaCoV/Wuhan/WIV04/2019); conditions: not given

Row | Compound | IC50
26 | CC1(C)[C@@H]2[C@H]3C(=O)N[C@H](C#N)C[C@@H]4C(=O)NC[C@@H]4CCCC[C@H](NC(=O)C4CCOCC4)C(=O)N3C[C@@H]21 [Example 85] | < 100 nM
27 | CC(C)(C)OC(=O)N[C@H]1CCCC[C@H]2CNC(=O)[C@H]2C[C@@H](C#N)NC(=O)[C@@H]2[C@H]3CCC[C@H]3CN2C1=O [Example 79] | < 100 nM
28 | CC1(C)[C@@H]2[C@H]3C(=O)N[C@H](C#N)C[C@@H]4C(=O)NCC[C@@H]4CCCC[C@H](NC(=O)C45CC(C(F)(F)F)(C4)C5)C(=O)N3C[C@@H]21 [Example 135] | 100 to 1000 nM
29 | CC(C)(C)NC(=O)[C@@H]1CCCC[C@H]2CNC(=O)[C@H]2C[C@@H](C#N)NC(=O)[C@@H]2[C@@H]3[C@H](CN2C1=O)C3(C)C [Example 166] | 1000 to 20000 nM
30 | CC(C)(C)C(=O)N[C@H]1CCCC[C@H]2CNC(=O)[C@H]2C[C@@H](C#N)NC(=O)[C@H](C2CCCC2)NC1=O [Example 80] | 100 to 1000 nM
31 | N#C[C@@H]1C[C@@H]2C(=O)NC[C@@H]2CCCC[C@H](NS(=O)(=O)c2ccc(F)cc2F)C(=O)N2C[C@@H]3CCC[C@@H]3[C@H]2C(=O)N1 [Example 155] | < 100 nM
32 | CC1(C)[C@@H]2[C@H]3C(=O)N[C@H](C#N)C[C@@H]4C(=O)NC[C@@H]4CCCC[C@H](NC(=O)c4ccc(F)cc4C(F)(F)F)C(=O)N3C[C@@H]21 [Example 139] | < 100 nM
33 | CC(C)C[C@@H]1NC(=O)[C@@H](OC(C)(C)C)CCC[C@H]2CNC(=O)[C@@H]2C[C@@H](C#N)NC1=O [Example 29] | > 20000 nM
34 | N#C[C@@H]1C[C@@H]2C(=O)NCC[C@@H]2CCCC[C@H](NC(=O)OC2CCCC2)C(=O)N2C[C@@H]3CCC[C@@H]3[C@H]2C(=O)N1 [Example 93] | < 100 nM
35 | CC(C)(C)C(=O)N[C@H]1CC/C=C/[C@H]2CNC(=O)[C@H]2C[C@@H](C#N)NC(=O)[C@@H]2[C@H]3CCC[C@H]3CN2C1=O [Example 86] | < 100 nM
36 | CC(C)(C)C(=O)N[C@H]1CC/C=C/[C@H]2CNC(=O)[C@H]2C[C@@H](C#N)NC(=O)[C@@H]2[C@@H]3[C@H](CN2C1=O)C3(C)C [Example 61] | < 100 nM
37 | CC(C)(C)OC(=O)N[C@@H]1CCCC[C@H]2CNC(=O)[C@H]2C[C@@H](C#N)NC(=O)[C@@H]2[C@@H]3[C@H](CN2C1=O)C3(C)C [Example 128] | > 20000 nM
38 | N#C[C@@H]1C[C@@H]2C(=O)NC[C@@H]2CCCC[C@H](NC(=O)C(F)(F)F)C(=O)N2C[C@@H]3CCC[C@@H]3[C@H]2C(=O)N1 [Example 88] | < 100 nM
39 | CC(C)C[C@@H]1NC(=O)CCCC[C@H]2CNC(=O)[C@@H]2C[C@@H](C=O)NC1=O [Example 4] | < 100 nM
40 | CC(C)C[C@@H]1NC(=O)[C@H](Cc2ccccc2)CCC[C@@H]2CNC(=O)[C@@H]2C[C@@H](C=O)NC1=O [Example 11] | 1000 to 20000 nM
41 | CC(C)(C)OC(=O)N[C@H]1CC/C=C\[C@H]2CCNC(=O)[C@H]2CC(C#N)NC(=O)[C@@H]2[C@H]3CCC[C@H]3CN2C1=O (some centres unmarked) [Example 97] | < 100 nM
42 | CC(C)(C)OC(=O)NN1CCCC[C@H]2CNC(=O)[C@H]2C[C@@H](C#N)NC(=O)[C@@H]2[C@@H]3[C@H](CN2C1=O)C3(C)C [Example 168] | 1000 to 20000 nM
43 | CC(C)C[C@@H]1NC(=O)[C@H](Cc2ccccc2)CCC[C@H]2CNC(=O)[C@@H]2C[C@@H](C=O)NC1=O [Example 21] | < 100 nM
44 | CC(C)(C)OC(=O)N[C@@]1(C)CCCCC[C@H]2CNC(=O)[C@H]2C[C@@H](C#N)NC(=O)[C@@H]2[C@@H]3[C@H](CN2C1=O)C3(C)C [Example 126] | > 20000 nM
45 | CC(C)(C)NC(=O)[C@H]1CCCC[C@H]2CNC(=O)[C@H]2C[C@@H](C#N)NC(=O)[C@@H]2[C@@H]3[C@H](CN2C1=O)C3(C)C [Example 167] | 100 to 1000 nM
46 | CC(C)(C)C(=O)N[C@H]1CCC[C@H]2CCNC(=O)[C@@H]2C[C@@H](C#N)NC(=O)[C@@H]2[C@@H]3[C@H](CN2C1=O)C3(C)C [Example 66] | < 100 nM
47 | CC1(C)[C@@H]2[C@H]3C(=O)N[C@H](C#N)C[C@@H]4C(=O)NC[C@@H]4CCCC[C@H](NC(=O)c4ccc(F)cc4F)C(=O)N3C[C@@H]21 [Example 103] | < 100 nM
48 | CC(C)C[C@@H]1NC(=O)[C@@H](Cc2ccccc2)CCC[C@@H]2CNC(=O)[C@@H]2C[C@@H](C=O)NC1=O [Example 9] | 100 to 1000 nM
49 | CC1(C)[C@@H]2[C@H]3C(=O)N[C@H](C#N)C[C@@H]4C(=O)NC[C@@H]4CCCC[C@H](NC(=O)C4CC(F)(F)C4)C(=O)N3C[C@@H]21 [Example 62] | < 100 nM
50 | CC1(C)[C@@H]2[C@H]3C(=O)N[C@H](C#N)C[C@@H]4C(=O)NC[C@@H]4CCCC[C@H](NS(=O)(=O)C4(C)CC4)C(=O)N3C[C@@H]21 [Example 159] | < 100 nM

— patent publication US20260325540A1 (priority 2023, published 2026)
